# Measured values taken from publication PMC12194305, “Assessing Bioconcentration and Biotransformation of BDE-47 In Vitro: The Relevance of Bioavailable and Intracellular Concentrations” (Journal of Xenobiotics, 2025).
# Values joined by “and” are separate entries in the source; they are usually repeats but may differ in a detail not shown here. Equal values may be shown once.
# How the values were obtained:
# Format in all cases: in vitro ADME
# [1] = Experimental determination of free bioavailable concentration (Cfree,exp) in exposure medium by SPME; conditions: for Cfree, exp: 28 °C, 72 h
# Experimental: In parallel with the exposure experiment for the evaluation of bioaccumulation and biotransformation described in the previous sections, an experiment was performed to estimate experimentally the free bioavailable concentration (Cfree,exp) in the test medium. For this purpose, an experiment was designed to simulate the test conditions, and Cfree was determined using solid-phase microextraction (SPME), following the fiber method developed by Henneberger et al..
# PDMS-coated glass microfibers (30 µm thick, 13.19 µL/m coating volume) were cut into 1.5 cm pieces and cleaned in methanol for more than 24 h prior to the experiment, with the solvent replaced at least three times. The cleaned and dried fiber was placed in a glass vial with 1 mL of sample exposure medium containing 1.8 and 2.6 mg·L^−1 BDE-47. Three replicates were prepared for each condition. A portion of the initial sample was stored at −20 °C until analysis. The vials were then sealed and incubated with rotation at 28 °C for 72 h until equilibrium of BDE-47 distribution among the fiber, medium, and binding to the predominant serum protein of the culture (Bovine serum albumin, BSA) was reached. Once at equilibrium, the fibers were extracted from the vials and desorbed with 400 µL isooctane for 24 h with rotation. Finally, the extract was analyzed by GC-MS-µECD, as described in Section 2.5. The concentration of BDE-47 in the initial sample (Cmed,0h) and in the resulting media after equilibration (Cmed,eq) was determined according to the procedure described in Section 2.5, to confirm the actual mass balance.
# Since this study evaluates and discusses the behavior of BDE-47 in comparison to observations from a previous study with phenanthrene, as explained in the introduction section, the experimental Cfree of phenanthrene was also determined, as it had not been measured previously. In this case, the difference in the process was that PA fibers (36 µm thick, 16.71 µL/m coating volume) were used. Samples of 10 and 20 mg·L^−1 PHE were prepared, and the fibers and samples were incubated for 24–48 h until equilibrium was reached, and desorbed with hexane for 3 h.
# To determine the free concentration, concentration in the SPME fiber (Cfiber) was first estimated using Equation (1) from the concentration measured in the desorption extract (Cdes), the desorption volume (Vdes) and the coating volume of the fiber (Vfiber). This volume was estimated according to the coating volume and the length of the fiber.(1) Cfiber=Cdes·Vdes/Vfiber
# Next, Cfree,exp was determined at the time before the SPME fiber was added to the system, according to Equation (2). For this, the concentration measured in the fiber equilibrated with the medium (PDMS-BDE-47-BSA or PA-PHE-BSA), the concentration measured in the initial sample (Cmed,0h), and the partition constant of the equilibrium formed between the fiber and the medium (log DPDMS/medium; BDE-47 = 5.84 [25]; log DPA/medium; PHE = 6.69 [26]) were used.(2) Cfree=Cmed,0h·Vsample/Dfiber/medium·Cmed,0h·Vsample/Cfiber−Vfiber
# zebrafish = assay: IVIVE-BCF model with zebrafish default parameters; conditions: for BCFIVIVE, ZF: ZFL cells, zebrafish parameters
# Description: (§1) One of the objectives was to assess whether cell lines can be used within the BCF-IVIVE model, relying on intrinsic clearance in vitro, to estimate the biotransformation rate which is subsequently extrapolated to adult fish. This approach is based on the model developed by Nichols et al. and is endorsed by the OECD guideline 319A [10] and OECD 2018a. Briefly, the log10-transformed substrate experimental concentrations in the medium (Cmed) were plotted against time, and the first-order elimination rate constant (ke, h^−1) was determined as −2.3 × slope of the log-linear decline. Black et al. indicate that a correction to the elimination rate constant (ke) should be applied when the following conditions are met: (i) abiotic losses from volatilization, calculated by comparing the recovery of negative control samples (“no cells”) at each exposure time to the initial time, fall outside the acceptable range of 80–120%, (ii) the loss process follows first order kinetics, and (iii) the ratio of ke and the volatilization rate constant (kvolat) is below 10 (ke/kvolat < 10). Then, the constant corrected for losses due to volatilization (ke,loss) was determined as −2.3 × the difference of the slopes of the sample and the loss control of the log-linear descent. The in vitro constant was then extrapolated to obtain an in vivo metabolization constant (kMET). This was done using experimental cell concentration (CHEP, 10^6 cells/mL) and default parameters derived from rainbow trout. In this study, in addition to estimating BCF with the official model parameters derived from rainbow trout (BCFIVIVE,RT), BCF was also estimated with the literature-derived parameters for zebrafish (BCFIVIVE,ZF), due to the use of ZFL cells. Finally, the BCF was estimated by the ratio of concentration in the organism to concentration in the medium, following the standardized model. The concentration in the organism was predicted using the one-compartment model given by Arnot and Gobas, which includes the rate constants describing chemical uptake (k1), loss through the gills (k2), fecal egestion (kE), growth rate (kG) and metabolization rate (kMET). Except for kMET, which is estimated experimentally in vitro, the rest are only dependent on the log KOW of the compound. On the other hand, due to the use of cell lines, the free concentration estimated was introduced instead of the total concentration in the medium (CW,TOT).
# rainbow trout = assay: IVIVE-BCF model with rainbow trout default parameters; conditions: for BCFIVIVE, RT: ZFL cells, rainbow trout parameters
# Description: as §1
smiles,measurement,setting,value
"Brc1ccc(Oc2ccc(Br)cc2Br)c(Br)c1 [BDE-47, 2,2′,4,4′-tetrabromodiphenyl ether]","% Cfree, exp","[1]; Cnom 1.8 mg·L^−1, % of total concentration",0.06% and 0.06 ± 0.03%
same,"Cfree, exp","[1]; Cnom 1.8 mg·L^−1, PDMS fiber",(0.4 ± 0.2) µg·L^−1
same,"% Cfree, exp","[1]; Cnom 2.6 mg·L^−1, % of total concentration",0.08% and 0.079 ± 0.003%
same,"Cfree, exp","[1]; Cnom 2.6 mg·L^−1, PDMS fiber",(1.14 ± 0.04) µg·L^−1
same,CLH,"zebrafish; 1.8 mg·L-1, ZF",2.01 mL/h/kg
same,"CLIN VITRO, INT","zebrafish; 1.8 mg·L-1, ZF",0.0220 mL/h/106 cells
same,kMET,"zebrafish; 1.8 mg·L-1, ZF",0.0022 day⁻¹
same,CLH,"zebrafish; 2.6 mg·L-1, ZF",0.333 mL/h/kg
same,"CLIN VITRO, INT","zebrafish; 2.6 mg·L-1, ZF",0.0037 mL/h/106 cells
same,kMET,"zebrafish; 2.6 mg·L-1, ZF",0.0004 day⁻¹
same,"BCFIVIVE, ZF",zebrafish; Cnominal 1.8 mg·L^−1,"13,885 L·kg^−1"
same,"BCFIVIVE, ZF",zebrafish; Cnominal 2.6 mg·L^−1,"14,926 L·kg^−1"
same,CLH,"rainbow trout; 1.8 mg·L-1, RT",8.217 mL/h/kg
same,"CLIN VITRO, INT","rainbow trout; 1.8 mg·L-1, RT",0.0220 mL/h/106 cells
same,kMET,"rainbow trout; 1.8 mg·L-1, RT",0.0092 day⁻¹
same,CLH,"rainbow trout; 2.6 mg·L-1, RT",1.38 mL/h/kg
same,"CLIN VITRO, INT","rainbow trout; 2.6 mg·L-1, RT",0.0037 mL/h/106 cells
same,kMET,"rainbow trout; 2.6 mg·L-1, RT",0.0015 day⁻¹
same,"BCFIVIVE, RT",rainbow trout; Cnominal 1.8 mg·L^−1,7221 L/kg
same,"BCFIVIVE, RT",rainbow trout; Cnominal 2.6 mg·L^−1,"14,184 L·kg^−1"
